In data set [1] the test system is purified Hb Yakima. The data set can be described thus: Effect on purified Hb Yakima. The data set is classed as biochemical, human.
For data set [2], the target named is hemoglobin in fresh human red blood cells (Homo sapiens, UniProt P68871+P69905). Nature of the data set: Oxygen equilibrium curves of fresh human red cell suspensions (p50). The conditions noted are these: presence of DIDS. The format is cell-based. On the procedure: Human blood was collected on heparin from healthy nonsmoking donors. Bovine blood was provided by Pr Delpech, INA (Paris-Grignon). Red blood cells were washed three times in isotonic buffer, kept at 4° C., and used within 24 h after sampling. Hemoglobin Yakima, a high-oxygen-affinity variant [α2 β2 99 (G1) Asp>>His], was obtained from a known heterozygous carrier. Fresh Yakima red cells were processed in the same way as described above.
L3,5 and L3,4,5 were provided by Dr. Lalezari (Montefiore Hospital, New York); RSR-4 [2-[4-[[(3,5-dichloroanilino)carbonyl]methyl]phenoxy]-2-methylpropionic acid]and RSR13 [2-4-[[(3,5- dimethylanilino)carbonyl]methyl]phenoxy]-2-methylpropionic acid] have been synthesized following the procedure described in Randad et al. (J. Med. Chem. 34,752 (1991)). Human serum albumin (HSA), bovine serum albumin (BSA) and 4,4'diisothiocyanatostilbene-2,2'-disulfonate (DIDS) were purchased from Sigma (St. Louis, Mo.). Due to their low solubility in aqueous buffer, 10 mM stock solutions of the compounds were prepared in a slight exccess of sodium bicarbonate and back-titrated to pH 7.4. For example, RSR-4 or RSR-13 was dissolved at 60° C. in a 140 mM NaCl and 50 mM bis-Tris buffer at room temperature upon progressive addition of NaHCO3 to obtain 10 mM stock solutions. The pH was carefully adjusted to 7.4 after complete solubilization and before use of the solutions. Fresh solutions were prepared each week. Stock solutions of DIDS (1 mM) were prepared, in the dark, on the day of the experiments in a pH 7.4 buffer. Human serum albumin (defatted HSA) and bovine serum albumin (BSA) were prepared freshly as 1 mM stock solutions, pH 7.4. Equilibrium Measurements. The allosteric modulation of the effectors on freshly prepared solutions of hemoglobin or red cell suspensions was measured by the change in p50, the partial pressure of oxygen for half-saturation. Oxygen equilibrium curves (OEC) were carried out with the Hemox analyzer (TCS, Southampton, Pa.) under the following conditions: pH 7.4, 140 mM NaCl and 50 mM bis-Tris buffer at 37° C. In all experiments, the concentration of hemoglobin in the red cell suspensions was 20-25 μM hemoglobin tetramer (Hb4) as measured by Drabkin's method (cyanomethemoglobin) at the end of each recording. The final concentration of the allosteric effector in the cuvette was 0.5 mM, resulting in an effector/Hb4 ratio of 20 in the absence of albumin. OEC were also made in the same buffer containing 12.5, 25, 50, and 100 μM HSA (for human red cell suspensions) or BSA (for bovine cell suspensions). The serum albumin experiments were carried out with traces of an antifoaming agent. This agent has no deleterious effect on the red cell suspensions. The molar ratio of albumin to tetrameric hemoglobin was varied from 0.5 (at 12.5 μM HSA) to 4 (at 100 μM HSA); in whole blood this ratio is approximately 0.3 (0.7 mM albumin plus plasma proteins/2.25 mM Hb4). Therefore, the concentration of albumin used in the present studies was always larger relative to tetrameric hemoglobin than that found in whole blood.
Equilibrium oxygen binding curves were also recorded for red cell suspensions (10% hematocrit) that had been reacted for 30 min in the dark at 37° C. with 20 μM DIDS, a specific inhibitor of the red cell membrane anion channel. Kinetic Experiments. The kinetics of the interaction between the effectors and intracellular hemoglobin were measured in the absence and presence of varying concentrations of HSA. The red cell suspensions were equilibrated under room air (pO2 =140 mmHg) at 37° C. in the optical cuvette of the Hemox analyzer, which provides a constant stirring of the suspensions. […] Changes in absorbance were recorded and stored on tape for further analyses. […]

Data set [3] concerns the target T1, deoxyhemoglobin (Homo sapiens, UniProt P68871+P69905). The data set can be described thus: X-ray crystallographic studies with deoxyhemoglobin. The data set is classed as binding. Particulars: near Arg 104β. On the procedure: X-ray Crystallographic Studies. Hemoglobin for the crystal studies was prepared from human blood, and T-state deoxy crystals were obtained from ammonium sulfate solutions. RSR-4 or RSR-13 (2 effectors/I Hb) was dissolved in a slight excess of sodium bicarbonate to facilitate dissolution and was added to a 6 g % solution of deoxy-Hb in the glove box. A 1 g % Hb RSR-4 or RSR-13 solution was added to each crystallization tube. Crystals grew in approximately 1 week. X-ray data were collected with Friedel pairs using ω scans on a Rigaku AFC5R diffractometer equipped with a rotating anode and a 60-cm long evacuated beam tunnel. The crystals with allosteric effectors were isomorphous with native deoxy-Hb: RSR-4, 63.2, 83.7, and 53.8 Å, 99.4°; RSR-13, 63.2, 83.6, and 53.7 Å, 99.5°. Data collection (RSR-4 to 2.4-Å and RSR-13 to 2.8-Å resolution) was controlled by TEXAN software from Molecular Structure Corp. (The Woodlands, Tex.). There was little radiation damage to crystals, and new crystals were mounted when standard reference reflection intensities fell by 10%. All data were corrected for radiation damage when appropriate. The R-factors for the Friedel pairs and derivatives vs. native were as follows: RSR-4 (2.4 Å), 14.6% and 18.9%, and RSR-13 (2.8 Å), 7.2% and 12.5%, respectively. The difference electron density maps were obtained using the Cambridge computer programs (CCP4). […] The allosteric effector molecules were well resolved and easily fit to the difference density.

The test system of data set [4] is hemoglobin. The data set can be described thus: Comparison of allosteric effector strength (right shift of oxygen equilibrium curve). The format is biochemical. The conditions noted are these: compounds of FIG. 1.
Data set [5] concerns human red cells. The data set can be described thus: Hemolysis of human red cells in vitro. The format is cell-based.
Data set [6] concerns bovine red cells. Nature of the data set: Hemolysis of bovine red cells in vitro. The data set is classed as cell-based.
The target in data set [7] is T1, deoxyhemoglobin. Particulars: X-ray, literature; cited from earlier work.
The test system of data set [8] is hemoglobin. Particulars: hemoglobin solutions, fresh intact red cells; cited from earlier work.
For data set [9] the following is noted: cited from earlier work.

Entries after “also recorded” stand apart in the source; their conditions may differ.

Take `O=C(O)C(COP(=O)(O)O)OP(=O)(O)O` (stereo not shown) [DPG, 2,3-diphospho-glyceric acid]: in [1], the “state of purified Hb Yakima in the presence of effector” value is on record as “remains locked in the high-affinity R-state”.

With `CC(C)(Oc1ccc(NC(=O)Nc2cc(Cl)c(Cl)c(Cl)c2)cc1)C(=O)O` [L3,4,5, reference compound], the “effect of DIDS (anion channel inhibitor) on the effect of the compounds” value in data set [2] was “does not inhibit the effects of the compounds”. Further, the “state of purified Hb Yakima in the presence of effector” value in [1] is given as “remains locked in the high-affinity R-state”. Further, the “second symmetry-related pair of binding sites” value in data set [3] is “have a second symmetry-related pair of binding sites near Arg 104β”. Further, the “allosteric effector strength” value in data set [4] is listed as “much stronger allosteric effect”.

As for `CC(C)(Oc1ccc(CNC(=O)c2ccc(Cl)cc2)cc1)C(=O)O` [MM-25], the “second symmetry-related pair of binding sites” value in data set [3] was “have a second symmetry-related pair of binding sites near Arg 104β”. Besides, the “allosteric effector strength” value in data set [4] is “somewhat stronger than bezafibrate”.

On to `Cc1cc(C)cc(NC(=O)Cc2ccc(OC(C)(C)C(=O)O)cc2)c1` [RSR-3], for which the hemolysis result in [5] and in data set [6] was “No hemolysis” throughout.

As for `CC(C)(Oc1ccc(CCNC(=O)c2ccc(Cl)cc2)cc1)C(=O)O` [bezafibrate], the “allosteric effector strength” value in [4] was “weakest effector; also recorded: much stronger allosteric effect”. Moreover, in data set [7], the “binding site in deoxyhemoglobin (prior art, words)” value was “bind to the same sites in the central water cavity of deoxyhemoglobin”. The “lowering of oxygen affinity / allosteric potency (prior art, words)” value in data set [8] is “much more effective in lowering the oxygen affinity of hemoglobin solutions and suspensions of fresh, intact red cells”. Besides, the “inhibition of effect by serum albumin (prior art, words)” value in data set [9] is “significantly inhibited by serum albumin”.

As for `CC(C)(Oc1ccc(Cl)cc1)C(=O)O` [clofibric acid], the “allosteric effector strength” value in [4] is on record as “only a relatively small effect in terms of lowering the oxygen affinity of hemoglobin”. Besides, in data set [7], the “binding site in deoxyhemoglobin (prior art, words)” value is given as “bind to the same sites in the central water cavity of deoxyhemoglobin”. The “lowering of oxygen affinity / allosteric potency (prior art, words)” value in data set [8] is “lowered the oxygen affinity of hemoglobin solutions”.

Source of the values: patent publication US5661182A, “Method for lowering oxygen affinity of hemoglobin in redcell suspensions, in whole blood and in vivo” (Virginia Commonwealth University, priority 1995, dated 1997).
